We go through one sequence from patent US20240124528A1, “ANTAGONIST OF INTERLEUKIN-17B RECEPTOR (IL-17RB) AND USE THEREOF” (Academia Sinica, priority 2020, published 2024).

The test system of assay [1] is pancreatic cancer cells expressing IL-17RB. Put plainly: Soft agar colony formation (SACF) assay after peptide treatment. Format: cell-based, human. Particulars: CFPAC1 and PDX-derived cells treated with peptide. The source says:
FIGS. 7A to 7J include charts showing that disruption of the interaction between IL-17RB and MLK4 by the loop peptide blocks oncogenic progression. (FIG. 7A) Peptides TAT48-57 (Control) (SEQ ID NO: 21) and TAT-IL-17RB403-416 (Loop) (SEQ ID NO: 30) used for the following experiments. (FIG. 7B) Immunoblotting analysis of IL-17RB binding to MLK4 with Loop peptide treatment. 293T cells expressing Flag-MLK4 and HA-IL-17RB were pretreated with the control and loop peptides with different dose (0, 0.1, 1, 10, 50, 100 ng/ml) for 30 mins, and then added rIL-17B for 30 mins. […] CCL20 and TFF/mRNA expression of these cells were measured by RT-qPCR (n=3) (FIG. 7D), the same cells were for invasion assay (n=4) (FIG. 7E) and SACF assay (n=4) (FIG. 7F). […] (FIG. 7I) The experimental EKP mice (n=7 for each group) were euthanized at Day 56, and the metastatic tumor nodules in the lungs were counted. […]
FIGS. 19A to 19D include charts showing that treatment with the loop peptide suppresses aggressive behavior of patient-derived pancreatic tumor cells. […] (FIG. 19C and FIG. 19D) These cells were measured by RT-qPCR for the cytokine gene mRNA expression (n=3), or for Invasion assay (n=4) (FIG. 19C) and SACF assay (n=4) (FIG. 19D). […]
Soft agar colony formation assay was performed as described (7). […] Crystal violet-stained colonies greater than 50 μm in size were counted and analyzed objectively by light microscopy.

For assay [2], the system named is transgenic pancreatic cancer EKP mice. Kind of assay: Spontaneous pancreatic cancer model, EKP mice plus cerulein. It counts as in vivo, mouse. Particulars: for recruitment of MDSC and M2 macrophage: pancreatic tissues, flow cytometry. The source says:
FIGS. 7A to 7J include charts showing that disruption of the interaction between IL-17RB and MLK4 by the loop peptide blocks oncogenic progression. (FIG. 7A) Peptides TAT48-57 (Control) (SEQ ID NO: 21) and TAT-IL-17RB403-416 (Loop) (SEQ ID NO: 30) used for the following experiments. (FIG. 7B) Immunoblotting analysis of IL-17RB binding to MLK4 with Loop peptide treatment. 293T cells expressing Flag-MLK4 and HA-IL-17RB were pretreated with the control and loop peptides with different dose (0, 0.1, 1, 10, 50, 100 ng/ml) for 30 mins, and then added rIL-17B for 30 mins. The cell lysates were reciprocally co-immunoprecipitated with anti-Flag and anti-HA and blotted with the indicated antibodies or directly immunoblotted with the indicated antibodies as the input controls. (FIG. 7C to FIG. 7F) CFPAC1cells were pretreated with the peptides for 30 mins and then added rIL-17B for 30 mins. The cell lysates were immunoblotted with the indicated antibodies or immunoprecipitated with anti-IL-17RB or control IgG and blotted with the indicated antibodies (FIG. 7C). CFPAC1 cells were pretreated with TAT48-57 or TAT-IL-17RB403-416 (50 ng/ml) 30 mins and then added rIL-17B for two hrs. CCL20 and TFF/mRNA expression of these cells were measured by RT-qPCR (n=3) (FIG. 7D), the same cells were for invasion assay (n=4) (FIG. 7E) and SACF assay (n=4) (FIG. 7F). (FIG. 7G) The scheme of the treatment of transgenic pancreatic cancer EKP mice (LSL-Kras^+/G12D; p53^+/−; Ela-Cre^ERT; plus cerulein) with the Loop peptides. (FIG. 7H) IHC images of pancreases stained with anti-P-Y447 antibody. Scale bars: 50 μm. The pancreas tissues were from EKP mice after treated with the control or loop peptides at Day 42. The Kras^+/+ mice (Kras^+/+; p53^+/−; Ela-Cre^ERT; plus cerulein) were used as the non-cancerous control. Boxes indicate the enlarged areas. (FIG. 7I) The experimental EKP mice (n=7 for each group) were euthanized at Day 56, and the metastatic tumor nodules in the lungs were counted. (FIG. 7J) Kaplan-Meier survival curve plot of the lifespans of the experimental EKP mice (n=7 for each group). Log-rank test was used.
FIGS. 20A to 20D include charts showing that treatment of TAT-IL-17RB403-416 peptide reduces the recruitment of MDSC and M2 macrophage. (FIG. 20A) Pancreatic tissues of EKP mice (LSL-Kras+/G12D; p53+/−; Ela-Cre^ERT; plus cerulein) (n=7 for each group) treated with TAT-IL-17RB403-416 (Loop) peptides were examined the tumor-immune modulating capacity by flow cytometry with specific cell surface markers as indicated. […] Data are mean±s.d. *P<0.05, **P<0.01 by two-tailed Student's t-test.
Formalin-fixed paraffin-embedded primary tumor tissue sections were used for IHC. Heat-induced antigen retrieval was performed using 0.1M citrate buffer, pH 6.0 and autoclaved for 20 mins. Endogenous peroxidase was eliminated with 3% H2O2. Slides were stained with an in-house-generated anti-IL-17RB antibody (A81, 1:2000) and anti-P-Y447 (1:500), respectively in PBS/10% FBS overnight at 4° C. After washing, slides were incubated with anti-rabbit/mouse HRP polymer before visualization with liquid diaminobenzidine tetrahydrochloride plus substrate DAB chromogen from Dako REAL EnVision (Carpinteria, CA). All slides were counterstained with hematoxylin.
Tumors were excised, weighed and measured. Approximately half of each dissected tumor was fixed in formalin for histopathologic analysis. The remaining tumor sections were placed in PBS with 1% (v/v) FBS and mechanically minced. […]
On the technique in general: Flow cytometry measures light scatter and fluorescence of single cells or particles in a stream.

For “RKKRRQRRRVCDGTCGKSEGSPS (IL-17RB inhibitory peptide, fusion protein) [loop peptide]”, the “colony formation ability (SACF)” value in assay [1] is on record as “diminished”. Further, the “lung metastasis nodule formation” value in assay [2] (EKP mice euthanized at day 56) is on record as “suppressed”. Further, in assay [2] (EKP mice, Day 42), the “expression of P-Y447 IL-17RB in pancreatic tissues (IHC)” value is recorded as “diminished”. Moreover, the “recruitment of MDSC and M2 macrophage” value was “reduced” in assay [2] (EKP mice) and “reduces” in assay [2] (EKP mice, listed as TAT-IL-17RB403-416). In addition, in assay [2] (EKP mice, second treatment protocol), the “lifespan (Kaplan-Meier survival)” value is “significantly prolonged”.
